According to paper PMC6534834 (Breast Cancer Research : BCR, 2019):
Where two headings read alike, the source gives them in different places. Each block holds one molecule with its values, some of them ahead of it.

Key:
FGFR = details: at the RP2D; cited from earlier work
[1] = Nintedanib (BIBF1120-BS and metabolite BIBF1202-ZW) plasma pharmacokinetics (LC-MS/MS); assay type: in vivo, human; details: for Mean plasma concentration at steady state (day 29) compared with day 1: level 2; for Mean Cmax / Mean AUC0-last / Mean Tmax / Cmax / Tmax / AUC(0-t): nintedanib species in plasma; for Pharmacokinetic interaction: increase in plasma concentrations: nintedanib and letrozole co-administered, three- for nintedanib, twofold for letrozole (respective); for Cmax / Tmax / AUC(0-t): human, plasma, oral; for AUC(0-t): read-out: Mean AUC0-last
Cyp3A4 = details: cited from earlier work
aromatase [2] = molecular target: T1, aromatase (Homo sapiens, UniProt P11511); parameters: endogenous in cells; host or cells: Tissues of the trial patients (in vivo); details: cited from earlier work; for Patients with 17-B-estradiol above the LLD: randomized 3-month crossover letrozole/anastrozole
T1 sequence (P11511 1-503): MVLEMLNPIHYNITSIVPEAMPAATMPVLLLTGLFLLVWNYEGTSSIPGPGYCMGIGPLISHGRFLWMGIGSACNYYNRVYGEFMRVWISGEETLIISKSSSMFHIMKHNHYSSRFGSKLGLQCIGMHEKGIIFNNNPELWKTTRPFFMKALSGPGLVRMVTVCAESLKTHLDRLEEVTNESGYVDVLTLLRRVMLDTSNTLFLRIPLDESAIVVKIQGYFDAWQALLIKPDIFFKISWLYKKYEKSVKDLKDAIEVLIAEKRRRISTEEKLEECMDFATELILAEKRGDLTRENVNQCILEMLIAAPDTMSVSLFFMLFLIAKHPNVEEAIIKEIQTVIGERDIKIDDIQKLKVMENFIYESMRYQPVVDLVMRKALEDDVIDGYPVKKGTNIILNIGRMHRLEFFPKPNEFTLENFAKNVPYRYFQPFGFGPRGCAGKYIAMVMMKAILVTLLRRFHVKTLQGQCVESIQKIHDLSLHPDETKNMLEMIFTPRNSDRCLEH

aromatase [3] = molecular target: T1, aromatase; assay: Plasma 17-B-estradiol level (clinical assay, LLD 5 pg/mL), pharmacodynamic marker of aromatase inhibition in patients; assay type: in vivo; parameters: endogenous in cells; host or cells: Tissues of the trial patients (in vivo)
[4] = Letrozole plasma pharmacokinetics (UPLC-MS/MS); assay type: in vivo, human; details: letrozole in plasma; for Cmax / AUC(0-t) / Tmax: human, plasma, oral; for AUC(0-t): read-out: Mean AUC0-last
[5] = human, in vivo
[6] = system: tumors with FGFR gene alterations; details: cited from earlier work
[7] = level 1 (nintedanib 150 mg/bid + letrozole […]), day 1
[8] = level 2 (nintedanib 200 mg/bid + letrozole […]), day 1

Molecule: CCN1CCN(c2ccc(Nc3cc(N(C)C(=O)Nc4c(Cl)c(OC)cc(OC)c4Cl)ncn3)cc2)CC1 [BGJ398]
Increase in FGF23 concentrations (FGFR): ~ 50%

Mean plasma concentration at steady state (day 29) compared with day 1 [1]: almost twofold higher | Mean Cmax [1, 7]: 0.024 µg/mL | Mean AUC0-last ([1]; level 1, day 1): 0.2 µg·h/mL | Mean Tmax ([1]; level 1, day 1): 1.9 h | Mean AUC0-last ([1]; level 1, day 29): 0.367 µg·h/mL | Mean Cmax ([1]; level 1, day 29): 0.028 µg/mL | Mean Tmax ([1]; level 1, day 29): 1.1 h | Mean Cmax [1, 8]: 0.041 µg/mL | Mean AUC0-last ([1]; level 2, day 1): 0.413 µg·h/mL | Mean Tmax ([1]; level 2, day 1): 3.3 h | Mean AUC0-last ([1]; level 2, day 29): 0.824 µg·h/mL | Mean Cmax ([1]; level 2, day 29): 0.067 µg/mL | Mean Tmax ([1]; level 2, day 29): 3.0 h
Molecule: CN1CCN(CC(=O)N(C)c2ccc(N/C(=C3\C(=O)Nc4cc(C(=O)O)ccc43)c3ccccc3)cc2)CC1 [BIBF1202-ZW]

Molecule: COc1cc(OC)cc(N(CCNC(C)C)c2ccc3ncc(-c4cnn(C)c4)nc3c2)c1 [JNJ-42756493]
Increase in FGF23 concentrations (FGFR): ~ 20%

Molecule: CC(C)(C#N)c1cc(Cn2cncn2)cc(C(C)(C)C#N)c1 [anastrozole]
Metabolizing enzyme (Cyp3A4): metabolized by Cyp3A4 | Patients with plasma 17-B-estradiol concentrations below the LLD (aromatase [2]; n = 191): 83% | Patients with 17-B-estradiol above the LLD (aromatase [2]): 37%

Patients with undetectable 17-B-estradiol levels (below LLD 5 pg/mL) (aromatase [3]; EOT visit, 4 weeks after ceasing nintedanib administration): 100% | Patients with undetectable 17-B-estradiol levels (below LLD 5 pg/mL) (aromatase [3]; day 1 (baseline), letrozole alone […] for at least 4 weeks): 87.5% | Cmax ([4]; Level 1 (nintedanib 150 mg/bid + letrozole […]), day 1): 0.1 µg/mL | AUC(0-t) ([4]; Level 1, day 1): 2.2 µg·h/mL | Cmax ([4]; Level 1, day 29): 0.0894 µg/mL | Tmax ([4]; Level 1, day 29): 4 h | AUC(0-t) ([4]; Level 1, day 29): 2.06 µg·h/mL | Cmax ([4]; Level 2 (nintedanib 200 mg/bid + letrozole […]), day 1): 0.124 µg/mL | Tmax ([4]; Level 2, day 1): 4 h | AUC(0-t) ([4]; Level 2, day 1): 2.78 µg·h/mL | Cmax ([4]; Level 2, day 29): 0.148 µg/mL | Tmax ([4]; Level 2, day 29): 2 h | AUC(0-t) ([4]; Level 2, day 29): 3.17 µg·h/mL | Mean Tmax ([4]; Level 1, day 1): 0 h
Molecule: N#Cc1ccc(C(c2ccc(C#N)cc2)n2cncn2)cc1 [letrozole]
Pharmacokinetic interaction: increase in plasma concentrations [1]: three- and twofold increases in their respective plasma concentrations | Metabolizing enzyme (Cyp3A4; no reference given): metabolized by Cyp3A4 | Suppression of aromatase activity (aromatase [2]; early letrozole trials): > 95% | Patients with 17-B-estradiol above the LLD (aromatase [2]): 2% | Grade 3 toxic events attributed to letrozole [5]: No grade 3 toxic events were attributed to letrozole

Cmax [1, 7]: 0.051 µg/mL | Tmax ([1]; level 1, day 1): 1.9 h | AUC(0-t) ([1]; level 1, day 1): 0.339 µg·h/mL | Cmax ([1]; level 1, day 29): 0.05 µg/mL | Tmax ([1]; level 1, day 29): 1.1 h | AUC(0-t) ([1]; level 1, day 29): 0.519 µg·h/mL | Cmax [1, 8]: 0.065 µg/mL | Tmax ([1]; level 2, day 1): 2 h | AUC(0-t) ([1]; level 2, day 1): 0.599 µg·h/mL | Cmax ([1]; level 2, day 29): 0.092 µg/mL | Tmax ([1]; level 2, day 29): 2 h | AUC(0-t) ([1]; level 2, day 29): 0.941 µg·h/mL | BIBF1120-BS AUC on day 29 compared with day 1 ([1]; in vivo): almost twofold higher | Mean plasma concentration at steady state (day 29) compared with day 1 [1]: almost twofold higher | BIBF1120-BS AUC on day 29 compared with steady-state values reported in phase I studies ([1]; versus nintedanib monotherapy [28], with pemetrexed [27], or paclitaxel plus carboplatin [47]): two to threefold higher
Molecule: COC(=O)c1ccc2c(c1)NC(=O)/C2=C(\Nc1ccc(N(C)C(=O)CN2CCN(C)CC2)cc1)c1ccccc1 [nintedanib]
Pharmacokinetic interaction: increase in plasma concentrations [1]: three- and twofold increases in their respective plasma concentrations | Metabolizing enzyme (Cyp3A4; no reference given): metabolized by Cyp3A4

Molecule: AZD4547
Disease stabilization rate ([6]; MATCH arm W, patients with FGFR amplifications): 50% | Response rate ([6]; arm W of the MATCH trial): 8%
